From patent US6046212A, “Chalcone derivatives and drugs containing the same” (Kowa Co., Ltd., priority 1996, dated 2000)
Where a name gives a salt, the structure may show the parent alone. Read-outs that look alike come from different tables or passages of the source. Blank lines part the entries; values can stand above or below the compound they belong to.

Key:
Leukotriene D4 Receptor = target: T1, Leukotriene D4 Receptor (Cavia porcellus, UniProt Q2NNR5); experiment: Leukotriene D4 Receptor Binding Inhibition Test; set-up: species or system guinea pig; details: for inhibition at 10 µM: read-out: LTD4 receptor, inhibition rate (%) at a high concentration
T1 construct: guinea pig pulmomembranous protein; from tissue; host or cells: guinea pig lung membranes
T1 sequence (Q2NNR5 1-340): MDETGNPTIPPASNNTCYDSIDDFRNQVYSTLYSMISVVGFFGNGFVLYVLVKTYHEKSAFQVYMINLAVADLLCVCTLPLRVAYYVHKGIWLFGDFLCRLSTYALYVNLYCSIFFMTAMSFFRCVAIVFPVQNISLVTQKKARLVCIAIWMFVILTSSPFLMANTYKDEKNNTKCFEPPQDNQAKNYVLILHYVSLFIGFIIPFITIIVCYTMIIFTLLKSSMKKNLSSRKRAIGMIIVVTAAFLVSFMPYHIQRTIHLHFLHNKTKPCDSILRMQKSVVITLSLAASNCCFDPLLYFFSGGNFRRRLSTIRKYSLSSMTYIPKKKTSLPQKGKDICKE
Description: An ice-cold tris hydrochloride/sodium chloride buffer (10 mM/100 mM, pH 7.5) was added to terminate the reaction, followed by immediate filtration through a Wattman CF/C filter. The filter was washed twice with 20 ml aliquots of the ice-cold buffer. The radio-activity of the residue was measured by a liquid scintillation counter. […] Using the Cheng-Prusoff formula, a dissociation constant (KD) was calculated from the IC50.

[1] = tested on: isolated guinea pig ileum; experiment: Antileukotriene D4 Action (In vitro Test): isotonic contractive response of isolated ileum to leukotriene D4; assay type: cell-based; details: Cavia porcellus, 0.5 h, Krebs buffer 37° C., 30 minutes incubation with test compound, read-out: Anti-LTD4 action (IC50 value)
Description: Antileukotriene D4 Action (In vitro Test)
An isolated guinea pig ileum was cut into about 2 cm lengths. Each ileum piece was suspended in a 20-ml organ bath filled with the Krebs buffer. […] The Krebs buffer was controlled at 37° C., through which a mixed gas (95%O2 -5%CO2) was bubbled. First, leukotriene D4 was added to an organ bath to measure its dose-response. After the ileum piece was washed several times with the buffer, a test compound (will be identified by its example number; this will apply likewise hereinafter) of a predetermined specific concentration was added.

airway constriction = details: cited from earlier work
[2] = read-out: LTD4 receptor, dissociation constant KD

inhibition at 10 µM (Leukotriene D4 Receptor): 18%
Compound: O=C(O)c1ccc(O)c(C(=O)/C=C/c2ccccc2OCc2ccc3ccccc3n2)c1 [Example 3, 5'-Carboxy-2'-hydroxy-2-[(2-quinolyl)methoxy]chalcone]

inhibition at 10 µM (Leukotriene D4 Receptor): 23%
Compound: O=C(O)c1ccc(O)c(C(=O)/C=C/c2ccc(OCc3ccccc3)cc2)c1 [Example 4, 4-Benzyloxy-5'-carboxy-2'-hydroxychalcone]

inhibition at 10 µM (Leukotriene D4 Receptor): 0%
Compound: O=C(O)c1ccc(O)c(C(=O)/C=C/c2ccccc2OCc2ccccc2)c1 [Example 6, 2-Benzyloxy-5'-carboxy-2'-hydroxychalcone]

Kd (Leukotriene D4 Receptor; [2]): 307 nM
Compound: O=C(O)c1cccc(C(=O)/C=C/c2ccc(OCc3ccc4ccccc4n3)cc2)c1O [Example 7, 3'-Carboxy-2'-hydroxy-4-[(2-quinolyl)methoxy]chalcone]

Kd (Leukotriene D4 Receptor; [2]): 396 nM
Compound: O=C(O)c1cc(F)cc(C(=O)/C=C/c2ccc(OCc3ccc4ccccc4n3)cc2)c1O [Example 8, 3'-Carboxy-5'-fluoro-2'-hydroxy-4-[(2-quinolyl)methoxy]chalcone]

Kd (Leukotriene D4 Receptor; [2]): 732 nM
Compound: O=C(O)c1cc(Cl)cc(C(=O)/C=C/c2ccc(OCc3ccc4ccccc4n3)cc2)c1O [Example 9, 3'-Carboxy-5'-chloro-2'-hydroxy-4-[(2-quinolyl)methoxy]chalcone]

inhibition at 10 µM (Leukotriene D4 Receptor): 16%
Compound: CCOC(=O)c1ccc(O)c(C(=O)C=Cc2ccc(OCc3ccc4ccccc4n3)cc2)c1 [Example 17]

IC50 [1]: 67 nM
Compound: O=C(/C=C/c1ccc(OCc2ccc3ccccc3n2)cc1)c1cc(-c2nnn[nH]2)ccc1O [Example 19, 2'-Hydroxy-4-[(2-quinolyl)-methoxy]-5'-(5-tetrazolyl)-chalcone]

IC50 [1]: 480 nM
Compound: CCOCCn1c(COc2ccc(C=CC(=O)c3cc(-c4nn[nH]n4)ccc3O)cc2)nc2ccccc21 [Example 23]

inhibition at 10 µM (Leukotriene D4 Receptor): 4%
Compound: O=C(/C=C/c1ccc(OCc2ccc3ccccc3c2)cc1)c1cc(-c2nnn[nH]2)ccc1O [Example 26, 2'-Hydroxy-4-(2-naphthyl-methoxy)-5'-(5-tetrazolyl)-chalcone]

IC50 [1]: 290 nM
Compound: COc1ccc(C(=O)O)cc1C(=O)/C=C/c1ccc(OCc2ccc3ccccc3n2)cc1 [Example 29, 5'-Carboxy-2'-methoxy-4-[(2-quinolyl)methoxy]chalcone]

Compound: CCCCOc1ccc(C(=O)O)cc1C(=O)C=Cc1ccc(OCc2ccc3ccccc3n2)cc1 [Example 32, 2'-n-Butoxy-5'-carboxy-4-(2-quinolylmethoxy)chalcone.HCl]
inhibition at 10 µM (Leukotriene D4 Receptor): 41%

inhibition at 10 µM (Leukotriene D4 Receptor): 8%
Compound: N#Cc1cccc(C(=O)/C=C/c2ccc(OCc3ccc4ccccc4n3)cc2)c1 [Example 35, 3'-cyano-4-(2-quinolylmethoxy)-chalcone]

inhibition at 10 µM (Leukotriene D4 Receptor): 6%
Compound: N#Cc1cccc(C(=O)/C=C/c2cccc(OCc3ccc4ccccc4n3)c2)c1 [Example 36, 3'-Cyano-3-(2-quinolylmethoxy)-chalcone]

inhibition at 10 µM (Leukotriene D4 Receptor): 26%
Compound: CCOCCn1c(COc2cccc(C=CC(=O)c3ccc(C(=O)O)cc3O)c2)nc2ccccc21 [Example 37, 4'-Carboxy-3-[(1-ethoxyethyl-benzimidazol-2-yl)methoxy]-2'-hydroxychalcone.HCl]

IC50 [1]: 120 nM
Compound: O=C(O)c1cccc(C(=O)/C=C/c2cccc(C=Cc3ccc4ccccc4n3)c2)c1O [Example 40, 3'-carboxy-2'-hydroxy-3-[(2-quinolyl)-ethenyl]chalcone]

inhibition at 10 µM (Leukotriene D4 Receptor): 38%
Compound: N#Cc1ccc(O)c(C(=O)/C=C/c2cccc(OCc3ccc4ccccc4n3)c2)c1 [Example 58, 5'-Cyano-2'-hydroxy-3-[(2-quinolyl)methoxy]chalcone]

Compound: CCCCC/C=C\C\C=C/C=C/C=C/[C@@H](SC[C@H](NC(=O)CC[C@H](N)C(=O)O)C(=O)NCC(=O)O)[C@@H](O)CCCC(=O)O [LTC4]
effects on airway constriction relative to histamine (airway constriction; when inhaled, compared with histamine): 1,000 times

Compound: CCCCC/C=C\C\C=C/C=C/C=C/[C@@H](SC[C@H](N)C(=O)O)[C@@H](O)CCCC(=O)O [LTE4]
duration of airway constriction (airway constriction; compared with that caused by the other leukotrienes): long lasting
activity compared with the other leukotrienes (airway constriction; compared with the other leukotrienes): lower activities

Compound: [^3 H]leukotriene D4 [reference compound]
slope of Hill plot (Leukotriene D4 Receptor; [^3 H]leukotriene D4 binding): 0.99
Kd (Leukotriene D4 Receptor; read-out: dissociation constant (KD) of [^3 H]leukotriene D4, radioligand, guinea pig pulmomembranous protein): 0.262 nM
